The target in this test is T1, TAP/hUS6 complex (Homo sapiens, UniProt Q03518+Q03519).
T1 construct: gene TAP1; TAP1 C-terminal SpyCatcher, TAP2, hUS6 with SpyTag at its cytoplasmic terminus (covalent tether), GFP tag cleaved; HEK293S GnTI-; in GDN; hUS6 residues 102-136 resolved; with Unique short US6 glycoprotein
The test is described as follows: cryo-EM structure of the complex. It counts as binding. To be noted: pH 6.5.

Each structure is given as a SMILES string.

T1 sequence (P14334 20-183): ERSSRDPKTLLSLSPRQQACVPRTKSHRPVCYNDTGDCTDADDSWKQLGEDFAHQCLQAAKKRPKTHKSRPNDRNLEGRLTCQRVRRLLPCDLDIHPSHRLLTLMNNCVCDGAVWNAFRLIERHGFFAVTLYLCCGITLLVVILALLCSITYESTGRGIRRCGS
T1 sequence (Q03518 whole entry, the tested form may be a part): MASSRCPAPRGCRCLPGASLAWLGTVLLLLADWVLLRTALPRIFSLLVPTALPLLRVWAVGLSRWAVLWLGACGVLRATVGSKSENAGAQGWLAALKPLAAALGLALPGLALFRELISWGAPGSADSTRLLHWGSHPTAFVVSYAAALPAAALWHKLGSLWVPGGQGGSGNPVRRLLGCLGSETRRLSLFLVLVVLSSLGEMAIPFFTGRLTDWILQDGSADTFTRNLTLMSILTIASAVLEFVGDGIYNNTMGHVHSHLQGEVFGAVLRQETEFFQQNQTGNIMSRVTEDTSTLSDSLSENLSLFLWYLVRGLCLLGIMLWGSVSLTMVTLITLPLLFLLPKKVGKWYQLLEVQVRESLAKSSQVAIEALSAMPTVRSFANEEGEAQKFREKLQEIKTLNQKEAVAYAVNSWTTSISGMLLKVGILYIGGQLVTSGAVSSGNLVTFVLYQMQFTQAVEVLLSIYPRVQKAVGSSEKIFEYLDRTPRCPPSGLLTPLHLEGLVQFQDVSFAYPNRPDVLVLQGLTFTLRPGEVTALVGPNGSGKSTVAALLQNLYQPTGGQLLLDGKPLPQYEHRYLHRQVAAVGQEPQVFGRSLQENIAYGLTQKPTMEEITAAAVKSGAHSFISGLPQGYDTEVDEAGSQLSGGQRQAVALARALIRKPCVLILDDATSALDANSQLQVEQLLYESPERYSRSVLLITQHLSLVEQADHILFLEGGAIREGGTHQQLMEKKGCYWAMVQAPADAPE
T1 sequence (Q03519 whole entry, the tested form may be a part): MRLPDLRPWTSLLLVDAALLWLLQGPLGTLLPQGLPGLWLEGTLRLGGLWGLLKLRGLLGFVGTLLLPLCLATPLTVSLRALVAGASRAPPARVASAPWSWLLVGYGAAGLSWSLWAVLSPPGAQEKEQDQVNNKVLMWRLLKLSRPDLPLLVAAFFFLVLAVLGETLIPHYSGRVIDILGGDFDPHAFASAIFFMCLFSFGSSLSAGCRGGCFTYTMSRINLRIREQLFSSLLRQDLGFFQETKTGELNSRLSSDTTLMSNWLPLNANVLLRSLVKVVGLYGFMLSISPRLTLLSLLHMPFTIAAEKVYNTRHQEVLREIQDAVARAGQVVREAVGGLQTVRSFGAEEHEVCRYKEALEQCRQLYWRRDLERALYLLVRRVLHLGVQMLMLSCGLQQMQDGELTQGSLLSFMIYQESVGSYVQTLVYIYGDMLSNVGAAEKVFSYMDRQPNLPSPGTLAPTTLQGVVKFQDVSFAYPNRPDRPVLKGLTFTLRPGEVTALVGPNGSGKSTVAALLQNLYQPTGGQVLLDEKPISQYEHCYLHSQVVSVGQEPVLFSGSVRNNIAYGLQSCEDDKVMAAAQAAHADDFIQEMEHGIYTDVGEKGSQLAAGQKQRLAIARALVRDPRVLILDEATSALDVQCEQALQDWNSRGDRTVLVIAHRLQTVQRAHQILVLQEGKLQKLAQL

Consider `Nc1ncnc2c1ncn2[C@@H]1O[C@H](COP(=O)(O)OP(=O)(O)O)[C@@H](O)[C@H]1O` [ADP], for which, where the note is “10 mM ATP added, ADP at the consensus NBD site, posthydrolytic state”, the “cryo-EM structure of the complex” value is “densities corresponding to ATP bound at the degenerate site and ADP at the consensus site”.

As to `Nc1ncnc2c1ncn2[C@@H]1O[C@H](COP(=O)(O)OP(=O)(O)OP(=O)(O)O)[C@@H](O)[C@H]1O` [ATP], the “cryo-EM structure of the complex” value (10 mM ATP, ATP at the degenerate NBD site, outward-facing, NBD-dimerized) was “densities corresponding to ATP bound at the degenerate site and ADP at the consensus site”.

The values above are taken from article PMC12478189, “Structurally diverse viral inhibitors converge on a shared mechanism to stall the antigen transporter TAP” (Proceedings of the National Academy of Sciences of the …, 2025).
